Among the data in PubChem BioAssay (NCI) are GI50 and TGI values, retold here.

Each structure is given as a SMILES string. Where “and” joins values, the source holds several entries; their conditions need not be identical. Equal values may be shown once.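 Step 1: Grow cells in 96-well plates. Step 2: Expose to compound for 48 hours at 5 concentrations. Step 3: Interpolate endpoints linearly; if unreached, use highest concentration. The concentration for 50% growth inhibition is given as GI50. TGI: concentration producing complete growth inhibition.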 A value given as a limit tells only on which side of the number the result lay.

Among the test systems are SF-295 CNS; COLO 205 colon; HT29 colon; U251 CNS; UACC-62 melanoma; SW-620 colon; NCI-H522 lung; RPMI-8226 leukemia; UACC-257 melanoma; OVCAR-4 ovarian.
What all share (assay): NCI anticancer screen, dose series, 48 h

For `[Cl][Cd][Cl]`, the GI50 in the assay on SF-295 CNS was 76.4 µM; in the assay on COLO 205 colon, > 46.7 µM and 12.9 µM; in the assay with HT29 colon, 45.4 µM; with U251 CNS, 14.7 µM and 13.6 µM; in the assay with UACC-62 melanoma it was 5.02 µM and 20.2 µM and 7.81 µM; in the assay on SW-620 colon, 19.5 µM and 17.2 µM. For the same compound, the GI50 with NCI-H522 lung was 0.32 µM and 1.39 µM and 0.349 µM; with UACC-257 melanoma, 22 µM and 27 µM; with OVCAR-4 ovarian, 7.95 µM and 19.6 µM and 8.69 µM. In addition, the TGI in the assay on SF-295 CNS was 155 µM; in the assay on COLO 205 colon it was > 69.2 µM and 36.3 µM; in the assay with HT29 colon it was 130 µM; with U251 CNS, 20.3 µM and 40.1 µM; in the assay on UACC-62 melanoma, 35.9 µM and 20.8 µM; in the assay on SW-620 colon, 37.1 µM and 76.7 µM. In addition, the TGI was 3.65 µM and 1.55 µM in the assay on NCI-H522 lung; 8.71 µM and 71.5 µM and 61.8 µM in the assay on RPMI-8226 leukemia; 56.2 µM and 74.9 µM in the assay on UACC-257 melanoma; 36.1 µM and 23.7 µM in the assay with OVCAR-4 ovarian.
On to `NCCSCCc1ccccc1`, for which the TGI with SF-295 CNS, with COLO 205 colon, in the assay with HT29 colon, in the assay on U251 CNS, in the assay with UACC-62 melanoma and in the assay on SW-620 colon was above 100 µM in each case. In addition, the TGI in the assay on NCI-H522 lung, in the assay on RPMI-8226 leukemia, in the assay with UACC-257 melanoma and in the assay with OVCAR-4 ovarian was above 100 µM each time.
In the case of `COc1ccc2c(c1OC)C(=O)c1cnccc1C2=O`, the TGI with SF-295 CNS, with COLO 205 colon, in the assay on HT29 colon, with U251 CNS, in the assay on UACC-62 melanoma and in the assay on SW-620 colon was above 100 µM throughout. Moreover, the TGI in the assay with NCI-H522 lung, with RPMI-8226 leukemia, in the assay on UACC-257 melanoma and in the assay with OVCAR-4 ovarian was above 100 µM each time.
Consider `COc1ccc2nc(NC(=O)c3cccnc3Nc3cc(OC)c(OC)c(OC)c3)sc2c1`, for which the GI50 in the assay on SF-295 CNS was 8.34 µM; with COLO 205 colon it was 17.4 µM; with HT29 colon, 17.7 µM; in the assay with U251 CNS, 7.1 µM; in the assay with UACC-62 melanoma, 8.45 µM; in the assay on SW-620 colon, 11.8 µM. Further, the GI50 was 2.6 µM in the assay on NCI-H522 lung, 9.94 µM in the assay on RPMI-8226 leukemia, 14.6 µM with UACC-257 melanoma and 15 µM with OVCAR-4 ovarian. Besides, the TGI in the assay on SF-295 CNS is 27.1 µM; in the assay on COLO 205 colon, 51.5 µM; in the assay with HT29 colon, 39.2 µM; with U251 CNS, 21.7 µM; with UACC-62 melanoma it was 24.6 µM; with SW-620 colon it was 24.5 µM. Further, the TGI in the assay on NCI-H522 lung was found to be 12 µM; in the assay with RPMI-8226 leukemia, 34.9 µM; in the assay on UACC-257 melanoma, 29.6 µM; with OVCAR-4 ovarian, 32.6 µM.
Take `Cn1cnc([N+](=O)[O-])c1Sc1ncn[nH]1`: the GI50 in the assay with SF-295 CNS is above 100 µM; with COLO 205 colon it was 28.4 µM; in the assay with HT29 colon it was above 100 µM; in the assay with U251 CNS it was above 100 µM; in the assay on UACC-62 melanoma, 96.3 µM; in the assay with SW-620 colon, 61.1 µM. Further, the GI50 in the assay with NCI-H522 lung was 19.8 µM; in the assay on RPMI-8226 leukemia, 43.9 µM; in the assay on UACC-257 melanoma, 68.2 µM; in the assay with OVCAR-4 ovarian, 72 µM. The TGI in the assay on SF-295 CNS, in the assay with COLO 205 colon, in the assay on HT29 colon, with U251 CNS, in the assay on UACC-62 melanoma and in the assay with SW-620 colon was above 100 µM throughout. The TGI in the assay on NCI-H522 lung, in the assay on RPMI-8226 leukemia, in the assay on UACC-257 melanoma and with OVCAR-4 ovarian was above 100 µM each time.
Consider `Cc1cccc2c(N)c3ccccc3nc12`, for which the GI50 was 1.67 µM with SF-295 CNS; 0.463 µM in the assay on COLO 205 colon; 0.593 µM with HT29 colon; 2.19 µM in the assay with U251 CNS; 1.56 µM in the assay on UACC-62 melanoma; 0.699 µM in the assay with SW-620 colon. Further, the GI50 with NCI-H522 lung is 1.45 µM; in the assay with RPMI-8226 leukemia it was 2.47 µM; in the assay with UACC-257 melanoma, 1.87 µM; in the assay on OVCAR-4 ovarian, 1.69 µM. Also, the TGI in the assay on SF-295 CNS amounted to 10.4 µM; in the assay with COLO 205 colon, 2.31 µM; in the assay with HT29 colon it was 3.58 µM; in the assay on U251 CNS, 7.84 µM; in the assay on UACC-62 melanoma, 4.6 µM; with SW-620 colon, 11.9 µM. Moreover, the TGI in the assay with NCI-H522 lung was 4.12 µM; with RPMI-8226 leukemia, 6.73 µM; with UACC-257 melanoma, 3.63 µM; in the assay with OVCAR-4 ovarian, 11.7 µM.
Turning to `CCC(=O)N/N=C(\C=C\c1cccc(O)c1)c1sc(Nc2ccc(C)cc2[N+](=O)[O-])nc1C`, the TGI in the assay with SF-295 CNS was above 100 µM; in the assay on COLO 205 colon it was above 100 µM; in the assay on HT29 colon it was 40.6 µM; in the assay with U251 CNS, above 100 µM; with UACC-62 melanoma, above 100 µM; with SW-620 colon, above 100 µM. Further, the TGI in the assay on NCI-H522 lung, in the assay with RPMI-8226 leukemia, with UACC-257 melanoma and in the assay on OVCAR-4 ovarian was above 100 µM throughout.
Consider `O=C(Nc1ccc(Cl)c(Cl)c1)OCCN1c2ccccc2Sc2ccccc21`, for which the TGI in the assay with SF-295 CNS, in the assay with COLO 205 colon, with HT29 colon, in the assay with U251 CNS, in the assay with UACC-62 melanoma and with SW-620 colon was above 10 µM each time. Moreover, the TGI in the assay with NCI-H522 lung, in the assay on RPMI-8226 leukemia, in the assay on UACC-257 melanoma and with OVCAR-4 ovarian was above 10 µM each time.
Consider `Cc1cc(Cl)ccc1C1OC(=O)c2c1ccc1ccccc21` (centres undefined), for which the TGI in the assay on SF-295 CNS, with COLO 205 colon, in the assay with HT29 colon, with U251 CNS, with UACC-62 melanoma and in the assay on SW-620 colon was above 100 µM in each case. Moreover, the TGI with NCI-H522 lung, with RPMI-8226 leukemia, in the assay with UACC-257 melanoma and in the assay on OVCAR-4 ovarian was above 100 µM each time.
On to `O=C1NC(=O)C2C1N(Cc1ccccc1)C(=O)N2Cc1ccccc1` (centres undefined), for which the TGI in the assay with SF-295 CNS, with COLO 205 colon, in the assay on HT29 colon, in the assay with U251 CNS, in the assay on UACC-62 melanoma and in the assay on SW-620 colon was above 100 µM each time. In addition, the TGI in the assay with NCI-H522 lung, with RPMI-8226 leukemia, in the assay on UACC-257 melanoma and in the assay with OVCAR-4 ovarian was above 100 µM in each case.
